Results published in PubChem BioAssay (NCI).
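All cell lines were grown in 96-well plates and treated with compound for 48 hours. GI50 marks 50% less growth. TGI is the concentration that stops growth completely.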

What was measured:
Test in all cases: DTP human tumour cell line panel, 48 h
[1] = tested on: 786-0 renal
[2] = tested on: A498 renal
[3] = tested on: A549 NSCLC
[4] = tested on: ACHN renal
[5] = tested on: BT-549 breast
[6] = tested on: CAKI-1 renal
[7] = tested on: CCRF-CEM leukemia
[8] = tested on: COLO 205 colon
[9] = tested on: DU-145 prostate
[10] = tested on: EKVX NSCLC
[11] = tested on: HCC-2998 colon
[12] = tested on: HCT-116 colon
[13] = tested on: HCT-15 colon
[14] = tested on: HL-60(TB) leukemia
[15] = tested on: HOP-62 NSCLC
[16] = tested on: HOP-92 NSCLC
[17] = tested on: HS 578T breast
[18] = tested on: HT29 colon
[19] = tested on: IGROV1 ovarian
[20] = tested on: K-562 leukemia
[21] = tested on: KM12 colon
[22] = tested on: LOX IMVI melanoma
[23] = tested on: M14 melanoma
[24] = tested on: MALME-3M melanoma
[25] = tested on: MCF7 breast
[26] = tested on: MDA-MB-231 breast
[27] = tested on: MDA-MB-435
[28] = tested on: MDA-MB-468 breast
[29] = tested on: MOLT-4 leukemia
[30] = tested on: NCI-H226 lung
[31] = tested on: NCI-H23 lung
[32] = tested on: NCI-H460 lung
[33] = tested on: NCI-H522 lung
[34] = tested on: OVCAR-3 ovarian
[35] = tested on: OVCAR-4 ovarian
[36] = tested on: OVCAR-5 ovarian
[37] = tested on: OVCAR-8 ovarian
[38] = tested on: PC-3 prostate
[39] = tested on: RPMI-8226 leukemia
[40] = tested on: RXF 393 renal
[41] = tested on: SF-268 CNS
[42] = tested on: SF-295 CNS
[43] = tested on: SF-539 CNS
[44] = tested on: SK-MEL-2 melanoma
[45] = tested on: SK-MEL-28 melanoma
[46] = tested on: SK-MEL-5 melanoma
[47] = tested on: SK-OV-3 ovarian
[48] = tested on: SN12C renal
[49] = tested on: SNB-19 CNS
[50] = tested on: SNB-75 CNS
[51] = tested on: SR leukemia
[52] = tested on: SW-620 colon
[53] = tested on: T-47D breast
[54] = tested on: TK-10 renal
[55] = tested on: U251 CNS
[56] = tested on: UACC-257 melanoma
[57] = tested on: UACC-62 melanoma
[58] = tested on: UO-31 renal

## O=C1Nc2cc(Cl)ccc2/C1=C/c1cccc(OCc2ccccn2)c1
[1]
  GI50: 14 µM
  TGI: 28.9 µM
[2]
  GI50: 22.1 µM
  TGI: 76.9 µM
[3]
  GI50: 13 µM
  TGI: 62.2 µM
[4]
  GI50: 6.07 µM
  TGI: 19.9 µM
[5]
  GI50: 3.92 µM
  TGI: 16.5 µM
[6]
  GI50: 2.73 µM
  TGI: 14.1 µM
[7]
  GI50: 3.1 µM
  TGI: > 100 µM
[8]
  GI50: 10.5 µM
  TGI: 22.2 µM
[9]
  GI50: 10.7 µM
  TGI: > 100 µM
[10]
  GI50: 5.41 µM
  TGI: 67.4 µM
[11]
  GI50: 11.4 µM
  TGI: 26.2 µM
[12]
  GI50: 3.07 µM
  TGI: 10.5 µM
[13]
  GI50: 2.71 µM
  TGI: 16.1 µM
[14]
  GI50: 2.13 µM
  TGI: 5.1 µM
[15]
  GI50: 6.95 µM
  TGI: 25 µM
[16]
  GI50: 1.85 µM
  TGI: 8.15 µM
[17]
  GI50: 2.01 µM
  TGI: 6.72 µM
[18]
  GI50: 4.47 µM
  TGI: 19.4 µM
[19]
  GI50: 3.89 µM
  TGI: 22.9 µM
[20]
  GI50: 2.82 µM
  TGI: > 100 µM
[21]
  GI50: 3.77 µM
  TGI: 87.4 µM
[22]
  GI50: 2.06 µM
  TGI: 4.92 µM
[23]
  GI50: 4.43 µM
  TGI: 16.8 µM
[24]
  GI50: 4.23 µM
  TGI: 46.6 µM
[25]
  GI50: 1.93 µM
  TGI: 11.4 µM
[26]
  GI50: 2.46 µM
  TGI: 9.13 µM
[27]
  GI50: 1.92 µM
  TGI: 4.25 µM
[28]
  GI50: 2.54 µM
  TGI: 9.08 µM
[29]
  GI50: 3.02 µM
  TGI: 11.3 µM
[30]
  GI50: 11.3 µM
  TGI: 70.4 µM
[31]
  GI50: 3.39 µM
  TGI: 16 µM
[32]
  GI50: 3.15 µM
  TGI: 12.3 µM
[33]
  GI50: 2.43 µM
  TGI: 6.63 µM
[34]
  GI50: 3.33 µM
  TGI: 16.2 µM
[35]
  GI50: 5.73 µM
  TGI: 35.5 µM
[36]
  GI50: 7.62 µM
  TGI: 26.8 µM
[37]
  GI50: 3.79 µM
  TGI: 16.3 µM
[38]
  GI50: 5.52 µM
  TGI: > 100 µM
[39]
  GI50: 2.93 µM
  TGI: 40.3 µM
[40]
  GI50: 3.08 µM
  TGI: 14.5 µM
[41]
  GI50: 4.82 µM
  TGI: > 100 µM
[42]
  GI50: 5.69 µM
  TGI: 25 µM
[43]
  GI50: 2.63 µM
  TGI: 8.05 µM
[44]
  GI50: 2.9 µM
  TGI: 9.3 µM
[45]
  GI50: 5.66 µM
  TGI: 32.3 µM
[46]
  GI50: 2.81 µM
  TGI: 13.4 µM
[47]
  GI50: 10.3 µM
  TGI: 26.8 µM
[48]
  GI50: 6.38 µM
  TGI: 26.1 µM
[49]
  GI50: 11 µM
  TGI: 27.8 µM
[50]
  GI50: 3.05 µM
  TGI: 38.8 µM
[51]
  GI50: 2.58 µM
  TGI: 10.3 µM
[52]
  GI50: 3.1 µM
  TGI: 14.3 µM
[53]
  GI50: 3.01 µM
  TGI: 22.6 µM
[54]
  GI50: 15.4 µM
  TGI: 34.7 µM
[55]
  GI50: 4.21 µM
  TGI: 15.4 µM
[56]
  GI50: 7.63 µM
  TGI: > 100 µM
[57]
  GI50: 2.7 µM
  TGI: 13.9 µM
[58]
  GI50: 3.03 µM
  TGI: 25 µM
